Experimental data reported in patent US20240360411A1, “METHODS AND COMPOSITIONS FOR INDUCING FETAL HEMOGLOBIN, MODULATING ERYTHROID CELL LINEAGES, AND PERTURBING MEGAKARYOCYTE LINEAGES” (FLAGSHIP PIONEERING INNOVATIONS VI, LLC, priority 2021, published 2024).

What was measured:
C57Bl/6J mice = assay: Carboplatin induced thrombocytopenia model (CIT), CBC and bone marrow flow cytometry; assay type: in vivo, mouse
From the text: Chemotherapy induced thrombocytopenia (CIT) was a major disease burden in cancer patients undergoing chemotherapy. CIT increases the risk of bleeding resulting in delay of chemotherapy and/or reduction in relative dose intensity (RDI), which has a major impact in overall outcomes to cancer treatment. Currently, there were no approved treatments besides platelet transfusions in severe CIT cases. Thrombopoietin (TPO) mimetics, such romiplostim, were being investigated as a possible new treatment to address CIT. Based on the ability to modulate megakaryocyte progenitors in vitro and healthy animals, murine models that replicate CIT were developed (Table 19.) To this end, the following chemotherapeutic compounds known to induced myelosuppression and thrombocytopenia in mouse and humans were selected to develop CIT models:
Carboplatin a cisplatin analog commonly used in the clinic to treat a diverse type of malignant tumors. Carboplatin works by cross-linking to DNA resulting in DNA damage and decreased tumor burden. In addition, carboplatin also leads to bone marrow myelosuppression including transient thrombocytopenia in both human and mice.
Healthy C57Bl/6J mice were treated with a single dose of carboplatin via intraperitoneal injection (60 or 100 mg/kg) (FIG. 16A). Complete blood count (CBC), specifically changes in platelet number were measured using a blood analyzer (Heska HT5) at baseline Day 0 (baseline), Day 9, Day 16 and Day 21. In addition, bone marrowwas harvested at 24 hrs, 48 hrs, 9 days and 21 days post-carboplatin injection to characterize changes in the hematopoietic stem cells compartment, and changes in megakaryocyte compartment. […] Analysis of the bone marrow hematopoietic compartments was performed using flow cytometry as described in Example 14.

sickle cell patient = sickle cell patient treated with hydroxyurea; Mundee et al.; cited from earlier work
[1] = single intraperitoneal dose, 60 or 100 mg/kg, day post-injection

SMILES | bone marrow hematopoietic compartments (early Mkps, mature megakaryocytes) (C57Bl/6J mice; flow cytometry 24 hrs, 48 hrs, 9 days, 21 days post-carboplatin injection, FIG. 17A, 17B) | tolerability (C57Bl/6J mice; single intraperitoneal dose, 60 or 100 mg/kg) | blood platelets (change in platelet number) (C57Bl/6J mice; single intraperitoneal dose, 60 or 100 mg/kg, FIG. 16B) | full recovery of platelet number (C57Bl/6J mice; [1]) [days] | nadir of blood platelets (C57Bl/6J mice; [1]) [days] | mean % F+ cells (sickle cell patient) | mean % HbF (sickle cell patient)
N.N.O=C([O-])C1(C(=O)[O-])CCC1.[Pt+2] [carboplatin] | dynamic loss and recovery of distinct populations | tolerated the treatment | decrease of blood platelets in a dose dependent manner | ≤ 21 | 9 |  | 
NC(=O)NO [hydroxyurea] |  |  |  |  |  | 54.1%±8.5% | 15.8%±2.0%
